According to patent US20260297081A1, “COMPOUNDS AND METHODS OF TREATING CANCERS” (Cullgen Inc., priority 2023, published 2026):

Legend:
Assay type in all cases: cell-based
CDK4 = CDK4 (Homo sapiens, UniProt P11802+Q16531); assay: CDK4 percentage degradation in Calu-1 cells (Table 6); design: Cells that express cyclin D1-3 and CDK4/6 proteins were treated with heterobifunctional compounds; endogenous in cells; host or cells: Calu-1; settings: 16 hours; for inhibition at 0.04 µM: 40 nM; for inhibition at 0.2 µM: 200 nM
How it was run: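 Calu-1 cells exposed to heterobifunctional compounds at 40 nM or 200 nM for 16 h. Cyclin D1 and CDK4 levels measured by Western blot of RIPA lysates (BCA-normalised loading), bands quantified by densitometry and expressed as percentage degradation.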

MCF7 cells = assay: Anti-proliferation (viability) of MCF7 cells (Table 7, FIG. 2B); settings: Homo sapiens, MCF7, MCF7 cells, 3-6 days, 10-point serial dilution; read-out: GI IC50 in MCF-7
Calu-1 cells = assay: Anti-proliferation (viability) of NSCLC Calu-1 cells, 3 days (Table 7, FIG. 2B); settings: Homo sapiens, 72 h; Calu-1 cells, 3 days, 10-point serial dilution; read-out: GI IC50 in Calu-1
How it was run: (§1)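 Cells were exposed to heterobifunctional compounds across a 10-point serial dilution, for 3 days with Calu-1 and 6 days with T47D. A negative control was included that keeps the DDB1 ligand and linker but carries a modified warhead that impairs CDK4 binding.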

T47D cells = assay: Anti-proliferation (viability) of ER+ breast cancer T47D cells, 6 days (Table 7, FIG. 2B); settings: Homo sapiens, 144 h; T47D cells, 6 days, 10-point serial dilution; read-out: GI IC50 in T47D
How it was run: as §1

Chain of CDK4 (P11802 2-303 limits assumed): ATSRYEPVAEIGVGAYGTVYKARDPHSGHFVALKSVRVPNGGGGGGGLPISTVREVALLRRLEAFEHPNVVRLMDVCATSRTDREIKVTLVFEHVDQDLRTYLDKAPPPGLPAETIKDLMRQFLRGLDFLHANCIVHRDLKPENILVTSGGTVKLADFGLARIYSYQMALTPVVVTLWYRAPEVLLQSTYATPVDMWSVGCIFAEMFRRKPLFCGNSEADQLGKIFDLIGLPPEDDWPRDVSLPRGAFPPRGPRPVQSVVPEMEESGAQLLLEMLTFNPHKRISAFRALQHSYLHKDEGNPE
Chain of CDK4 (P24385 whole entry partner): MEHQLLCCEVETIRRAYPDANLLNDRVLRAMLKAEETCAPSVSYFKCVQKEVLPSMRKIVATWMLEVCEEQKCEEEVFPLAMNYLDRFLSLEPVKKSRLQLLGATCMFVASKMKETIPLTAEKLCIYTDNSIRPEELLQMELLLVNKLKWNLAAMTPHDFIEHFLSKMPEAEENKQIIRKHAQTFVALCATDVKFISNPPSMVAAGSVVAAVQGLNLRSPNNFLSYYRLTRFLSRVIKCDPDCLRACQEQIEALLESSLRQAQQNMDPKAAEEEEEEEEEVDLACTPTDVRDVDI
Chain of CDK4 (Q16531 2-1140 limits assumed): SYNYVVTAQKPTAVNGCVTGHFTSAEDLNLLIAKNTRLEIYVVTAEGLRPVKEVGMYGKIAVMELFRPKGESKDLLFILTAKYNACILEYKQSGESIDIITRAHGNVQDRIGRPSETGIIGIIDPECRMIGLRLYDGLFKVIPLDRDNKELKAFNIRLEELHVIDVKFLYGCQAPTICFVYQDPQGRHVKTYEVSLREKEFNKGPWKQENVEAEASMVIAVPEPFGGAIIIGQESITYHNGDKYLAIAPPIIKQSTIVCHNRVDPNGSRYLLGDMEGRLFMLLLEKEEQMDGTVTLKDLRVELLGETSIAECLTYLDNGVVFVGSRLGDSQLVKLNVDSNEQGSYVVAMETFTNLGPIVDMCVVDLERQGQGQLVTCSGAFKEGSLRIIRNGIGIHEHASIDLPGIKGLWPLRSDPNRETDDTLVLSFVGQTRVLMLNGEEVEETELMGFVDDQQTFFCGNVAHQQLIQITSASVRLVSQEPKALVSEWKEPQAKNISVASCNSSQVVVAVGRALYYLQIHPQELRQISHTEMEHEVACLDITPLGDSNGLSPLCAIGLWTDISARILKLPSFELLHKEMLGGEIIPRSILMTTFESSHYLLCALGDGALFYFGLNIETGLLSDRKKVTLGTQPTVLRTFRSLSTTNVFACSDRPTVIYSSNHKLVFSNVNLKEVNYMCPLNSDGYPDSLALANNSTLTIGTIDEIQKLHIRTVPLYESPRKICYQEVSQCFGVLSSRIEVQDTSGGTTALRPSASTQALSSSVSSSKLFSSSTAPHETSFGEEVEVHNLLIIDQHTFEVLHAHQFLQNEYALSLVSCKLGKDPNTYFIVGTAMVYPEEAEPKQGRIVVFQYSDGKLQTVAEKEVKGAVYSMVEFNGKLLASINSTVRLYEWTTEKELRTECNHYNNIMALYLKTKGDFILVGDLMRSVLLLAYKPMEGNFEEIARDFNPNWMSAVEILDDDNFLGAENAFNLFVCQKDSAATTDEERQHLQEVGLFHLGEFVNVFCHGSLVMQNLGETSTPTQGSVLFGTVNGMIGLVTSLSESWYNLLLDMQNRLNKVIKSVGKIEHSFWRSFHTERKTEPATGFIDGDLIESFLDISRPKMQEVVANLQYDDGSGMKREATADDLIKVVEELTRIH

Row | SMILES | inhibition at 0.04 µM (CDK4) [%] | inhibition at 0.2 µM (CDK4) [%] | IC50 (MCF7 cells) [nM] | IC50 (Calu-1 cells) [nM] | IC50 (T47D cells) [nM]
1 | CNc1ccc(C(=O)Nc2cc(C)n(C)n2)c(NCCCCCNC(=O)CN2CCN(c3ccc(Nc4ncc5c(C)c(C(C)=O)c(=O)n(C6CCCC6)c5n4)nc3)CC2)n1 [CPD-50, 2-((5-(2-(4-(6-((6-acetyl-8-cyclopentyl-5-methyl-7-oxo-7,8-dihydropyrido[2,3-d]pyrimidin-2-yl)amino)pyridin-3-yl)piperazin-1-yl)acetamido)pentyl)amino)-N-(1,5-dimethyl-1H-pyrazol-3-yl)-6-(methylamino)nicotinamide] | 50 to 80 | 50 to 80 | < 50 | ≤ 10 | 50 to 100
2 | CNc1ccc(C(=O)Nc2cccc(C3CC3)n2)c(NCCCCCNC(=O)CN2CCN(c3ccc(Nc4ncc5c(C)c(C(C)=O)c(=O)n(C6CCCC6)c5n4)nc3)CC2)n1 [CPD-51, 2-((5-(2-(4-(6-((6-Acetyl-8-cyclopentyl-5-methyl-7-oxo-7,8-dihydropyrido[2,3-d]pyrimidin-2-yl)amino)pyridin-3-yl)piperazin-1-yl)acetamido)pentyl)amino)-N-(6-cyclopropylpyridin-2-yl)-6-(methylamino)nicotinamide] | 50 to 80 | 50 to 80 | 50 to 100 | ≤ 10 | 50 to 100
3 | CNc1ccc(C(=O)Nc2ccc(N(C)C)nn2)c(NC2CC3(C2)CN(C(=O)CCN2CCN(c4ccc(Nc5ncc6c(C)c(C(C)=O)c(=O)n(C7CCCC7)c6n5)nc4)CC2)C3)n1 [CPD-62, 2-((2-(3-(4-(6-((6-Acetyl-8-cyclopentyl-5-methyl-7-oxo-7,8-dihydropyrido[2,3-d]pyrimidin-2-yl)amino)pyridin-3-yl)piperazin-1-yl)propanoyl)-2-azaspiro[3.3]heptan-6-yl)amino)-N-(6-(dimethylamino)pyridazin-3-yl)-6-(methylamino)nicotinamide] | > 80 | > 80 | < 50 | ≤ 10 | ≤ 50
4 | CC(=O)c1c(C)c2cnc(Nc3ccc(N4CCN(CC(=O)NCCCCCNc5nc(C(C)C)ccc5C(=O)Nc5ccc(N(C)C)nn5)CC4)cn3)nc2n(C2CCCC2)c1=O [CPD-63, 2-((5-(2-(4-(6-((6-Acetyl-8-cyclopentyl-5-methyl-7-oxo-7,8-dihydropyrido[2,3-d]pyrimidin-2-yl)amino)pyridin-3-yl)piperazin-1-yl)acetamido)pentyl)amino)-N-(6-(dimethylamino)pyridazin-3-yl)-6-isopropylnicotinamide] | > 80 | > 80 | < 50 | ≤ 10 | ≤ 50

Further lines, results first:

Row | inhibition at 0.04 µM (CDK4) [%] | inhibition at 0.2 µM (CDK4) [%] | IC50 (MCF7 cells) [nM] | IC50 (Calu-1 cells) [nM] | IC50 (T47D cells) [nM] | SMILES
5 | 50 to 80 | 50 to 80 | < 50 | ≤ 10 | 50 to 100 | CCc1ccc(C(=O)Nc2ccc(N(C)C)nn2)c(NCCCCCNC(=O)CN2CCN(c3ccc(Nc4ncc5c(C)c(C(C)=O)c(=O)n(C6CCCC6)c5n4)nc3)CC2)n1 [CPD-54, 2-((5-(2-(4-(6-((6-Acetyl-8-cyclopentyl-5-methyl-7-oxo-7,8-dihydropyrido[2,3-d]pyrimidin-2-yl)amino)pyridin-3-yl)piperazin-1-yl)acetamido)pentyl)amino)-N-(6-(dimethylamino)pyridazin-3-yl)-6-ethylnicotinamide]
6 | 50 to 80 | 50 to 80 | > 100 | ≤ 10 | 50 to 100 | [2H]C([2H])([2H])Nc1ccc(C(=O)Nc2ccc(N(C)C)nn2)c(NCCCCCNC(=O)CN2CCN(c3ccc(Nc4ncc5c(C)c(C(C)=O)c(=O)n(C6CCCC6)c5n4)nc3)CC2)n1 [CPD-66, 2-((5-(2-(4-(6-((6-Acetyl-8-cyclopentyl-5-methyl-7-oxo-7,8-dihydropyrido[2,3-d]pyrimidin-2-yl)amino)pyridin-3-yl)piperazin-1-yl)acetamido)pentyl)amino)-N-(6-(dimethylamino)pyridazin-3-yl)-6-((methyl-d3)amino)nicotinamide]
